Assay results reported in US20230346772A1, “COMBINATION TREATMENTS FOR WALDENSTROM'S MACROGLOBULINEMIA” (X4 Pharmaceuticals, Inc., priority 2019, published 2023).
Where two headings read alike, the source gives them in different places.

Assays:
WBC count = conditions: similar across neutrophils, monocytes, lymphocytes including B cells; cited from earlier work
CD19 B cells = conditions: patients with WHIM who had mutations in CXCR4; cited from earlier work
[1] = test system: Waldenstrom's Macroglobulinemia; conditions: cited from earlier work
[2] = Food effect on absorption
[3] = test system: Waldenstrom's Macroglobulinemia; conditions: treatment-naive WM patients, cited from earlier work
[4] = test system: Waldenstrom's Macroglobulinemia; conditions: previously treated WM patients, cited from earlier work
Solubility of X4P-001 = assay type: physicochemical
[5] = Phase 1/2 study in renal cell carcinoma, dose-limiting toxicities; assay type: in vivo, human
Experimental: Doses of mavorixafor up to 600 mg daily have been tested in other clinical trials. During a Phase 1/2 study in renal cell carcinoma, a 3-patient cohort received monotherapy with 600 mg mavorixafor with 2 DLTs reported. On review, one of these (hyperglycemia) occurred in a patient with undiagnosed diabetes mellitus and the other (acute kidney injury [AKI]) occurred in a patient with pre-existing renal dysfunction and other complicating factors. Six patients received the 600 mg mavorixafor dose together with axitinib. […] Patients with a high hemoglobin A1c (HbA1c) level or with renal dysfunction are excluded from this study for safety reasons.

[6] = Terminal half-life of X4P-001; conditions: in vivo
CXCR4 = CXCR4 (Homo sapiens, UniProt P61073)
Experimental: Dose selection for the planned Phase 1b study is based on available safety data and PD of CXCR4 inhibition. […] An intrapatient dose escalation scheme is used in this study: patients will have a dose escalation in 200-mg increments to a maximum dose of 600 mg QD with the objective of achieving maximum white blood cell (WBC) mobilization.

neutrophil = assay: Pharmacodynamic response of neutrophil changes (ANC); parameters: species or system human; conditions: in vivo
Description: This characteristic of mavorixafor, allows for intrapatient patient dose escalation and since the steady-state ANC response is achieved rapidly as doses are escalated, the 28-day treatment duration cycle is intended to ensure that steady-state changes in ANC counts are achieved at each dose level, thereby avoiding any potential carry-over effects of previous doses. In addition, any DLT events are attributed to the current dose regardless of duration, making it unlikely that an unsafe dose is selected based on the algorithm.

CXCR4, sequence (P61073 whole entry): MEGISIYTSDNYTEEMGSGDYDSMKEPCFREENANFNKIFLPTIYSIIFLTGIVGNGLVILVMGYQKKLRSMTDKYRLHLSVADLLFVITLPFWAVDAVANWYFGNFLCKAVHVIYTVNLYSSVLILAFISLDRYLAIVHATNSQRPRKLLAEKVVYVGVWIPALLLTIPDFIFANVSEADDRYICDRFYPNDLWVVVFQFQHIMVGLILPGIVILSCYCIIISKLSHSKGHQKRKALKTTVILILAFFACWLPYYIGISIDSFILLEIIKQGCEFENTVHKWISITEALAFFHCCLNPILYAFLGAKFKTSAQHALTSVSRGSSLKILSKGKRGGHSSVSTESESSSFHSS

c1cc(CN2CCCNCCNCCCNCC2)ccc1CN1CCCNCCNCCCNCC1 [plerixafor]
maximum fold-increase in WBCs over baseline (WBC count): 3 fold | fold increase in CD19 B cells (CD19 B cells): greater than 40 fold

C=CC(=O)N1CCC[C@@H](n2nc(-c3ccc(Oc4ccccc4)cc3)c3c(N)ncnc32)C1 [ibrutinib, 1-[(3R)-3-[4-amino-3-(4-phenoxyphenyl)-1Hpyrazolo[3,4-d]pyrimidin-1-yl]-1-piperidinyl]-2-propen-1-one]
VGPR ([1]; patients with the MYD88^L265P CXCR4^WT mutations): 44.4% | VGPR ([1]; patients with the double mutations MYD88^L265P CXCR4^WHIM): 9.5% | absorption when taken with food [2]: increased | MR (major response) ([3]; All Patients): 83% | VGPR (very good partial response) ([3]; All Patients): 20% | MR (major response) ([3]; MYD88^L265P CXCR4^WHIM): 71% | VGPR (very good partial response) ([3]; MYD88^L265P CXCR4^WHIM): 7% | MR (major response) ([3]; MYD88^L265P CXCR4^WT): 94% | VGPR (very good partial response) ([3]; MYD88^L265P CXCR4^WT): 31% | MR (major response) ([4]; All Patients): 78% | VGPR (very good partial response) ([4]; All Patients): 29% | MR (major response) ([4]; MYD88^L265P CXCR4^WHIM): 67% | VGPR (very good partial response) ([4]; MYD88^L265P CXCR4^WHIM): 10% | MR (major response) ([4]; MYD88^L265P CXCR4^WT): 97% | VGPR (very good partial response) ([4]; MYD88^L265P CXCR4^WT): 44%

NCCCCN(Cc1nc2ccccc2[nH]1)[C@H]1CCCc2cccnc21 [X4P-001]
solubility (Solubility of X4P-001; aqueous buffer, pH range 3.0 to 8.0, read-out: Solubility): > 100 mg/mL | solubility (Solubility of X4P-001; in water): only slightly soluble | DLTs reported ([5]; 600 mg monotherapy, 3-patient cohort): 2 | patients reporting DLTs ([5]; 600 mg together with axitinib, six patients): Two of these patients reported DLTs | half-life [6]: 12 to 24 h | pharmacological activity of the dose (CXCR4; 200 mg starting dose, prior clinical trials): pharmacologically active | tolerability of the dose (CXCR4; human, in vivo): well-tolerated | pharmacodynamic response of neutrophil changes (neutrophil): rapid, occurring within hours to days
